Experimental data as given in the NIST ThermoML archive (doi:10.1016/j.jct.2008.07.008).
Numbers after ± are expanded uncertainties.

Assays:
[1] = refractive index (Na D-line) (dimensionless); conditions: 101.33 kPa, Liquid, Standard Abbe refractometry
[2] = refractive index (Na D-line) (dimensionless); xn = mol fraction of the nth substance listed; conditions: 101 kPa, Liquid, Standard Abbe refractometry

CCCCCCCC [octane]
[1]
Conditions | refractive index
277.8 K | 1.404 ± 0.0004
279.68 K | 1.4032 ± 0.0004
280.36 K | 1.4028 ± 0.0004
280.51 K | 1.4027 ± 0.0004
281.66 K | 1.4021 ± 0.0004
282.65 K | 1.4017 ± 0.0004
283.88 K | 1.4012 ± 0.0004
284.73 K | 1.4007 ± 0.0004

N#Cc1ccccc1 [benzonitrile]
[1]
Conditions | refractive index
277.43 K | 1.5321 ± 0.0004
278.33 K | 1.5318 ± 0.0004
279.49 K | 1.5312 ± 0.0004
280.36 K | 1.5307 ± 0.0004
280.38 K | 1.5307 ± 0.0004
280.86 K | 1.5305 ± 0.0004
281.97 K | 1.5299 ± 0.0004
284.13 K | 1.5289 ± 0.0004

N#Cc1ccccc1 [benzonitrile] + CCCCCCCC
[2]
Conditions | refractive index
280.36 K, x1 = 0.092 | 1.4104 ± 0.0004
280.36 K, x1 = 0.244 | 1.4248 ± 0.0004
280.36 K, x1 = 0.344 | 1.4353 ± 0.0005
280.36 K, x1 = 0.558 | 1.4613 ± 0.0005
280.36 K, x1 = 0.644 | 1.4726 ± 0.0005
280.36 K, x1 = 0.762 | 1.4901 ± 0.0005
280.36 K, x1 = 0.821 | 1.4996 ± 0.0005
280.36 K, x1 = 0.927 | 1.5176 ± 0.0005
280.36 K, x1 = 1 | 1.5307 ± 0.0004
282.93 K, x1 = 0.558 | 1.4599 ± 0.0005
283.35 K, x1 = 0.344 | 1.4339 ± 0.0005
283.66 K, x1 = 0.558 | 1.4597 ± 0.0005
283.67 K, x1 = 0.344 | 1.4337 ± 0.0005
284.57 K, x1 = 0.344 | 1.4333 ± 0.0005
284.78 K, x1 = 0.558 | 1.4591 ± 0.0005
285.65 K, x1 = 0.344 | 1.4327 ± 0.0005
285.74 K, x1 = 0.558 | 1.4586 ± 0.0005
286.64 K, x1 = 0.558 | 1.4583 ± 0.0005
286.73 K, x1 = 0.344 | 1.4322 ± 0.0005
287.64 K, x1 = 0.558 | 1.4578 ± 0.0005
287.77 K, x1 = 0.344 | 1.4318 ± 0.0005
288.61 K, x1 = 0.558 | 1.4574 ± 0.0005
288.82 K, x1 = 0.344 | 1.4313 ± 0.0005

CCCCCCCC [octane] + N#Cc1ccccc1
Conditions | refractive index
[2], 280.36 K, x2 = 0 | 1.4028 ± 0.0004
